In patent US11642307B2, “Ambrisentan for use in the treatment of acute renal failure” (Noorik Biopharmaceuticals AG, priority 2016, dated 2023):

System: healthy human subjects
Test: 24-hour intravenous ambrisentan infusion in healthy human subjects: urine output, water balance, free water clearance
Format: in vivo
Experimental: A study was performed to determine whether lower concentrations of ambrisentan in blood are less likely to produce renal side effects as those seen with current concentrations achieved with the current commercial presentation of ambrisentan. In this study a liquid composition of ambrisentan at a concentration of 5 mg/mL was administered to 20 healthy human subjects at varying rates of administration in order to achieve different ambrisentan concentrations in blood and over a period of 24 hours. Target concentrations in the low dose group were 20 and 40 ng/mL (Group A) after 4 hours and 16 hours respectively, and 80 and 160 ng/mL in the high dose group (Group B) after 4 hours and 16 hours respectively. […] Steady state for each target concentration was maintained for at least 8 hours prior to increasing the concentration. Ten subjects were assigned to Group A and ten subjects to Group B. Pharmacokinetic and plasma ET-1 samples were collected and analysed at different timepoints for up to 72 hours. Urine was collected for 24 hours and in intervals from 0-2 hours, 2-4 hours, 4-8 hours, 8-12, hours, 12-18 hours and 18-24 hours.
All subjects received a 100 ml/hr infusion of 0.45% physiological solution for 24 hours and ambrisentan was administered in a 250-mL solution of 0.9% of physiological solution over a period of 24 hours. Subjects had free access to water and a normal diet. At a minimum, subjects received through intravenous infusion a total of 2650 mL of water and 223.3 mmol of sodium in the 24-hour period of drug administration.
The effect on urine was consistent throughout the different collection periods of the 24-hour infusion period. Patients in Group A maintained higher urinary output rates throughout the study as compared to Group B. In the Tables Below, Water Balance is the result of subtracting urine volume from intravenous liquid input.
The increase in urine formation (diuresis) was further characterised by determining the effect of ambrisentan on urine composition, specifically urine osmolality.

COC(c1ccccc1)(c1ccccc1)[C@H](Oc1nc(C)cc(C)n1)C(=O)O [ambrisentan]
Hourly Water Balance, Mean (Group A (low dose, target 20 and 40 ng/mL), collection period 0 H to 2 H): -74.58 mL/h
Hourly Water Balance, Mean (Group A (low dose, target 20 and 40 ng/mL), collection period 2 H to 4 H): -76.08 mL/h
Hourly Water Balance, Mean (Group A (low dose, target 20 and 40 ng/mL), collection period 4 H to 8 H): -1.08 mL/h
Hourly Water Balance, Mean (Group A (low dose, target 20 and 40 ng/mL), collection period 8 H to 12 H): -12.58 mL/h
Hourly Water Balance, Mean (Group A (low dose, target 20 and 40 ng/mL), collection period 12 H to 18 H): -13.75 mL/h
Hourly Water Balance, Mean (Group A (low dose, target 20 and 40 ng/mL), collection period 18 H to 24 H): -32.92 mL/h
Cumulative Water Balance, Mean (Group A (low dose, target 20 and 40 ng/mL), end of collection 2 H): -149.17 mL
Cumulative Water Balance, Mean (Group A (low dose, target 20 and 40 ng/mL), end of collection 4 H): -301.33 mL
Cumulative Water Balance, Mean (Group A (low dose, target 20 and 40 ng/mL), end of collection 8 H): -305.67 mL
Cumulative Water Balance, Mean (Group A (low dose, target 20 and 40 ng/mL), end of collection 12 H): -356.00 mL
Cumulative Water Balance, Mean (Group A (low dose, target 20 and 40 ng/mL), end of collection 18 H): -438.50 mL
Cumulative Water Balance, Mean (Group A (low dose, target 20 and 40 ng/mL), end of collection 24 H): -636.00 mL
Hourly Water Balance, Mean (Group B (high dose, target 80 and 160 ng/mL), collection period 0 H to 2 H): -6.33 mL/h
Hourly Water Balance, Mean (Group B (high dose, target 80 and 160 ng/mL), collection period 2 H to 4 H): 11.17 mL/h
Hourly Water Balance, Mean (Group B (high dose, target 80 and 160 ng/mL), collection period 4 H to 8 H): 27.17 mL/h
Hourly Water Balance, Mean (Group B (high dose, target 80 and 160 ng/mL), collection period 8 H to 12 H): 7.17 mL/h
Hourly Water Balance, Mean (Group B (high dose, target 80 and 160 ng/mL), collection period 12 H to 18 H): -10.08 mL/h
Hourly Water Balance, Mean (Group B (high dose, target 80 and 160 ng/mL), collection period 18 H to 24 H): 34.75 mL/h
Cumulative Water Balance, Mean (Group B (high dose, target 80 and 160 ng/mL), end of collection 2 H): -12.67 mL
Cumulative Water Balance, Mean (Group B (high dose, target 80 and 160 ng/mL), end of collection 4 H): 9.67 mL
Cumulative Water Balance, Mean (Group B (high dose, target 80 and 160 ng/mL), end of collection 8 H): 118.33 mL
Cumulative Water Balance, Mean (Group B (high dose, target 80 and 160 ng/mL), end of collection 12 H): 147.00 mL
Cumulative Water Balance, Mean (Group B (high dose, target 80 and 160 ng/mL), end of collection 18 H): 86.50 mL
Cumulative Water Balance, Mean (Group B (high dose, target 80 and 160 ng/mL), end of collection 24 H): 295.00 mL
fluid accumulation (ambrisentan concentrations above 100 ng/mL): significant accumulation of fluid through the inability to increase urinary output
renal effect, fluid retention (total ambrisentan lower than 100 ng/mL): have less of an effect on fluid retention
renal effect, fluid retention (total ambrisentan of about 100 ng/mL and higher): show an adverse renal effect by promoting fluid retention
